Test results taken from patent US20170112857A1, “Extended Release Aspirin” (New Haven Pharmaceuticals, Inc., priority 2015, published 2017).
Read-outs that look alike come from different tables or passages of the source.

Key:
[1] = Single dose ASA pharmacokinetics, IR ASA vs. ER ASA; assay type: in vivo, human; conditions: for AUC(0-t) / Cmax / Tmax: human, serum, oral, ASA
Protocol: Healthy adults were randomized to receive single doses of extended release ASA (“ER ASA”) at a dosage of 20 mg, 40 mg, 81 mg, 162.5 mg ER ASA (Durlaza®; New Haven Pharmaceuticals, Inc., North Haven, Conn.), or 325 mg, or immediate release ASA (“IR ASA”; aspirin powder USP; Letco Medical, Decatur, Ala.) at a dosage of 5 mg, 10 mg, 20 mg, 40 mg or 81 mg. […] For pharmacodynamic assessments, serum 11-dehydro-thromboxane (“TxB2”, a stable metabolite of thromboxane A2) levels were assessed using a validated enzyme immunoassay kit in serial blood samples collected 1 hour before dosing and at 0.5, 1, 2, 4, 8, 16, and 24 hours after drug administration.

platelet aggregation = experiment: VerifyNow Aspirin Assay (ARU), turbidimetric optical detection in whole blood; assay type: in vivo, human; conditions: Visit 2 trough
Protocol: The VerifyNow® is a turbidimetric based optical detection system that measures platelet aggregation in the whole blood and reports the optical signals as aspirin reaction units (“ARU”). The percent change in ARU over 24 hours (“ARU24”) is calculated from 1 hour post dose using the following formulas: ARU12(%)=(([…]16(%)=(([…]1)*100 and ARU24(%)=(([…]1)*100. […] For this study the trough level data are from the following timepoints: (1) for 81 mg-the data at Visit 2; […]

[2] = test system: platelet aggregation / clot strength; experiment: Plateletmapping assay (TEG-6S analyzer); assay type: in vivo, human; conditions: Visit 2 trough
Protocol: The […]® assay ([…] is a registered trademark of Haemoscope Corp.) was conducted using a TEG®-6S analyzer (TEG is a registered trademark of Haemoscope Corp.) and results included parameters: […] For summary purposes the change in each parameter over 24 hours is calculated by subtracting the result at 24 hours from the result at 1 hour (i.e., absolute difference). […] For this study the trough level data are from the following timepoints: (1) for 81 mg-the data at Visit 2; […]

platelet function = experiment: PlateletWorks platelet function at trough level; assay type: in vivo, human; conditions: Visit 2 trough
Protocol: The platelet function and aggregation measures at trough level were compared between the 81 mg immediate release ASA, 162.5 mg ER ASA (Durlaza®) and 325 mg ER ASA groups. For this study the trough level data are from the following timepoints: (1) for 81 mg—the data at Visit 2; (2) for 162.5 mg ER ASA (Durlaza®)—the data at Visit 3 pre-dose; and (3) for 325 mg ER ASA—the data at Visit 6 pre-dose.
This is unknown for patients with Diabetes and CVD or multiple risk factors.

endothelial function = experiment: Reactive hyperemia index (ENDOPAT pulsatile arterial tonometry); assay type: in vivo, human; conditions: for RHI < 1.67 (%): share of subjects
Protocol: Endothelial function was assessed using the ENDOPAT system ([…] Medical, Israel), a pulsatile arterial tonometry-based diagnostic device, at Visit 2, Visit 3, Visit 5, and Visit 6 predose. The reactive hyperemia index (“RHI”), a measure of endothelial function, and the augmentation index (“AI”), a measure of arterial stiffness, were determined. Endothelial dysfunction is defined as RHI<1.67. Normal arterial stiffness is defined as an AI -30% to -10%, increased arterial stiffness as an AI>-10% to 10%, and abnormal arterial stiffness as an AI>10%. The RHI measures vessel pliability which is a surrogate for nitric oxide production. The production of nitric oxide inhibits platelet aggregation. Thus, determining nitric oxide production following Durlaza® dosing is important to understanding its affect on platelet inhibition.

[3] = test system: 2, 3-dinor-6-keto-PGF1α (prostacyclin); experiment: Urinary 2,3-dinor-6-keto-PGF1α (prostacyclin) excretion by GC/MS, basal and bradykinin-stimulated (Example 3); assay type: in vivo, human
Protocol: Each subject was prohibited from taking any aspirin for two weeks prior to being administered the randomly chosen drug daily for 1 week followed by a urine collection 24 hours after dosing. This protocol was repeated two additional times. […] Statistical analysis was done using Wilcoxon rank sum test for continuous variables and the Pearson test for categorical variables.

Interleukin-8 (IL-8) = experiment: Bradykinin-stimulated Interleukin-8 serum levels (Example 4); assay type: in vivo, human
Protocol: Subjects of Group 1 were randomly administered a placebo, 81 mg IR ASA and 162.5 mg IR ASA. Subjects of Group 2 were randomly administered a placebo, 81 mg ER ASA and 162.5 mg ER ASA (Durlaza®). Each subject was prohibited from taking any aspirin for two weeks prior to being administered the randomly chosen drug daily for 1 week followed by a urine collection 24 hours after dosing. This protocol was repeated two additional times. For each urine collection TxB2 and 2, 3-dinor-6-keto-PGF1α (“prostacyclin”) levels were measured using gas chromatography-mass spectrometry (“GC/MS”). Statistical analysis was done using Wilcoxon rank sum test for continuous variables and the Pearson test for categorical variables.
Interleukin-8 (“IL-8”) serum levels (and Interleukin-6 levels, not shown) were measured both prior to and after administration of 0, 81 or 162.5 mg of either IR ASA or ER ASA.

serum TxB2 = conditions: 75 mg IR ASA; Würtz et al.; cited from earlier work
[4] = single dose 5 mg, healthy adults
[5] = single dose 10 mg, healthy adults
[6] = single dose 20 mg, healthy adults
[7] = single dose 40 mg, healthy adults
[8] = single dose 81 mg, healthy adults
[9] = 81 mg IR, subjects compared with Visit 6 (sub-study)
[10] = HPT Group, Visit 5, 81 mg IR ASA

CC(=O)Oc1ccccc1C(=O)O [IR ASA, acetylsalicylic acid]
time required to reach the maximum concentration of ASA ([1]; all doses, single dose, healthy adults): 1 to 2 h
AUC(0-t) ([1]; 5 mg, single dose 5 mg, healthy adults, read-out: AUClast): 26.8 ng·h/mL
AUC(0-t) ([1]; 10 mg, single dose 10 mg, healthy adults, read-out: AUC0-8): 136 ng·h/mL
AUC(0-t) ([1]; 10 mg, single dose 10 mg, healthy adults, read-out: AUClast): 74.9 ng·h/mL
AUC(0-t) ([1]; 20 mg, single dose 20 mg, healthy adults, read-out: AUC0-8): 366 ng·h/mL
AUC(0-t) ([1]; 20 mg, single dose 20 mg, healthy adults, read-out: AUClast): 148 ng·h/mL
AUC(0-t) ([1]; 40 mg, single dose 40 mg, healthy adults, read-out: AUClast): 384 ng·h/mL
AUC(0-t) ([1]; 81 mg, single dose 81 mg, healthy adults, read-out: AUClast): 865 ng·h/mL
Cmax [1, 4]: 25.1 ng/mL
Tmax [1, 4]: 1.2 h
Cmax [1, 5]: 63.9 ng/mL
Tmax [1, 5]: 1.5 h
Cmax [1, 6]: 123 ng/mL
Tmax [1, 6]: 1.6 h
Cmax [1, 7]: 228 ng/mL
Tmax [1, 7]: 1.4 h
Cmax [1, 8]: 504 ng/mL
Tmax [1, 8]: 1.4 h
time period over which serum concentrations of ASA were maintained ([1]; single dose, 8 hours = sampling interval evaluated): 6 h
VerifyNow Aspirin Assay (ARU) (platelet aggregation; 81 mg IR QD, main study): 477 ± 72 ARU
VerifyNow Aspirin Assay (ARU) (platelet aggregation; [9]): 475 ± 102 ARU
TEG PlateletMapping AA Aggregation ([2]; 81 mg IR QD, main study): 48 ± 29
TEG PlateletMapping ADP Aggregation ([2]; 81 mg IR QD, main study): 74 ± 25
TEG PlateletMapping MA (clot strength, mm) ([2]; 81 mg IR QD, main study): 65 ± 5 mm
TEG PlateletMapping MA-AA (mm) ([2]; 81 mg IR QD, main study): 39 ± 15 mm
TEG PlateletMapping MA-ADP (mm) ([2]; 81 mg IR QD, main study): 50 ± 18 mm
TEG PlateletMapping MA-fibrin (mm) ([2]; 81 mg IR QD, main study): 17 ± 11 mm
TEG PlateletMapping R (Clotting time, min) ([2]; 81 mg IR QD, main study): 6.8 ± 1.5 min
TEG PlateletMapping AA Aggregation [2, 9]: 75 ± 17
TEG PlateletMapping ADP Aggregation [2, 9]: 73 ± 21
TEG PlateletMapping MA (clot strength, mm) [2, 9]: 64 ± 3 mm
TEG PlateletMapping MA-AA (mm) [2, 9]: 54 ± 9 mm
TEG PlateletMapping MA-ADP (mm) [2, 9]: 52 ± 11 mm
TEG PlateletMapping MA-fibrin (mm) [2, 9]: 24 ± 12 mm
TEG PlateletMapping R (Clotting time, min) [2, 9]: 7.1 ± 0.7 min
PlateletWorks (% Agg) AA (platelet function; 81 mg IR QD, main study): 44 ± 19 % Agg
PlateletWorks (% Agg) ADP (platelet function; 81 mg IR QD, main study): 83 ± 15 % Agg
PlateletWorks (% Agg) Collagen (platelet function; 81 mg IR QD, main study): 47 ± 17 % Agg
PlateletWorks (% Agg) AA (platelet function; [9]): 44 ± 16 % Agg
PlateletWorks (% Agg) ADP (platelet function; [9]): 84 ± 10 % Agg
PlateletWorks (% Agg) Collagen (platelet function; [9]): 44 ± 12 % Agg
Reactive Hyperemia Index, Maximum (endothelial function; [10]): 2.27
Reactive Hyperemia Index, Mean (endothelial function; [10]): 1.74
Reactive Hyperemia Index, Minimum (endothelial function; [10]): 1.23
Reactive Hyperemia Index, Mean (endothelial function; HPT Group, Visit 5, 81 mg IR ASA, listed as IR aspirin): 1.7±0.5
RHI < 1.67 (%) (endothelial function; [10]): (44) %
Reactive Hyperemia Index, Maximum (endothelial function; Visit 2, 81 mg IR ASA): 3.01
Reactive Hyperemia Index, Mean (endothelial function; Visit 2, 81 mg IR ASA): 1.94
Reactive Hyperemia Index, Minimum (endothelial function; Visit 2, 81 mg IR ASA): 0.58
Reactive Hyperemia Index, Mean (endothelial function; Visit 2, 81 mg IR ASA, listed as IR aspirin): 1.9±0.5
RHI < 1.67 (%) (endothelial function; Visit 2, 81 mg IR ASA): (27.5) %
Bradykinin-stimulated prostacyclin levels over placebo ([3]; 81 mg): significantly reduced
Basal prostacyclin levels over placebo ([3]; 81 mg daily for 1 week): significantly reduced
Bradykinin-stimulated prostacyclin levels over placebo ([3]; 162.5 mg): significantly reduced
Basal prostacyclin levels over placebo ([3]; 162.5 mg daily for 1 week): significantly reduced
Bradykinin-stimulated IL-8 levels (Interleukin-8 (IL-8); 81 mg): increased
Bradykinin-stimulated IL-8 levels (Interleukin-8 (IL-8); 162.5 mg): increased
serum TxB2 levels 24 hours after administration (serum TxB2): significant increase
